Measurements: patent publication US20260294853A1, “COSMETIC COMPOSITION HAVING ANTI-INFLAMMATORY ACTIVITY” (LG CHEM, LTD., priority 2023, published 2026)

System: Mouse macrophages
Assay: Evaluation of Reactive Nitrogen Species Inhibiting Ability (nitric oxide production in LPS-treated mouse macrophages, Griess reagent)
Format: cell-based
Conditions: under the treatment concentration of the 3-hydroxypropionic acid; LPS 1 μg/ml
Procedure: Mouse macrophages were divided into 1×10^6 cells in a 6-well plate and cultured for 24 hours, then treated with LPS (Lipopolysaccharide, concentration 1 μg/ml) solution, and treated with the 3-hydroxypropionic acid aqueous solution according to Preparation Example 1 at four concentrations (3HP concentration: 0 wt. %, 0.0125 wt. %, 0.025 wt. %, 0.05 wt. %), and then cultured again for 24 hours. Only the medium was then separated and centrifuged for 10 minutes to collect only the supernatant. The supernatant was mixed with Griess reagent (Sigma-Aldrich) reagent in a 1:1 ratio and reacted at room temperature, and then the absorbance (OD, wavelength 540 nm) was measured using a microplate reader. The measured value was substituted into the regression equation obtained from the standard curve prepared by reacting Griess reagent (Sigma-Aldrich) and NaNO2 in a 1:1 ratio to calculate the amount of nitric oxide (NO) produced. Here, the case in which neither the LPS solution nor the 3HP aqueous solution was treated was performed as a negative control group.

O=C(O)CCO [3HP, 3-Hydroxypropionic acid]
effect of inhibiting the production of reactive nitrogen species: the effect of inhibiting the production of reactive nitrogen species was exhibited
